Test results taken from patent US20230108906A1, “SUBSTITUTED BICYCLIC AND TRICYCLIC UREAS AND AMIDES, ANALOGUES THEREOF, AND METHODS USING SAME” (Arbutus Biopharma Corporation, priority 2019, published 2023).
pEC50: −log10 of the molar value.

Tested on: HBV rcDNA in HepDE19 cells
Assay: HepDE19 assay with bDNA quantitation of HBV rcDNA
Assay type: cell-based, hepatitis B virus (HBV)
Conditions: Hepatitis B virus, HepDE19, 168 h, inhibition of rcDNA formation in HepDE19 cells (HepG2 derived), Tet-free medium, 7 day incubation, Quantigene 2.0 bDNA readout, top concentration 25 μM; read-out: DE-19bDNA EC50
Method: HepDE19 Assay with bDNA Quantitation of HBV rcDNA:
HepDE19 cell culture system is a HepG2 (human hepatocarcinoma) derived cell line that supports HBV DNA replication and cccDNA formation in a tetracycline (Tet)-regulated manner and produces HBV rcDNA and a detectable reporter molecule dependent on the production and maintenance of cccDNA (Guo, et al., 2007, J. Virol. 81:12472-12484).
HepDE19 (50,000 cells/well) were plated in 96-well collagen-coated tissue-culture treated microtiter plates in DMEM/F12 medium supplemented with 10% fetal bovine serum, 1% penicillin-streptomycin and 1 μg/mL tetracycline and incubated in a humidified incubator at 37° C. and 5% CO2 overnight. Next day, the cells were switched to fresh medium without tetracycline and incubated for 4 hours at 37° C. and 5% CO2. The cells were treated with fresh Tet-free medium with compounds at concentrations starting at 25 μM and a serial, […], 8-point, titration series in duplicate. The final DMSO concentration in the assay was 0.5%. The plates were incubated for 7 days in a humidified incubator at 37° C. and 5% CO2. Following a 7 day-incubation, the level of rcDNA present in the inhibitor-treated wells was measured using a Quantigene 2.0 bDNA assay kit (Affymetrix, Santa Clara, Calif.) with HBV specific custom probe set and manufacturers instructions. Concurrently, the effect of compounds on cell viability was assessed using replicate plates, plated at a density of 5,000 cells/well and incubated for 4 days, to determine the ATP content as a measure of cell viability using the cell-titer glo reagent (CTG; Promega Corporation, Madison, Wis.) as per manufacturer's instructions. The plates were read using a Victor luminescence plate reader (PerkinElmer Model 1420 Multilabel counter) and the relative luminescence units (RLU) data generated from each well was calculated as % inhibition of the untreated control wells and analyzed using XL-Fit module in Microsoft Excel to determine EC50 and EC90 (bDNA) and CC50 (CTG) values using a 4-parameter curve fitting algorithm.
Representative compounds of the disclosure were tested for their abilities to inhibit formation of relaxed circular DNA (rcDNA) in a HepDE19 assay, as described elsewhere herein.

CN(C(=O)Nc1ccc(F)c(Cl)c1)C1CCCc2[nH]c(=O)c3ccccc3c21 (racemic) [Compound 6, 3-(3-Chloro-4-fluorophenyl)-1-methyl-1-(6-oxo-1,2,3,4,5,6-hexahydrophenanthridin-1-yl)urea] and CN(C(=O)Nc1ccc(F)c(Cl)c1)C1CCc2[nH]c(=O)c3ccccc3c21 (stereo not shown) [Compound 12, 3-(3-Chloro-4-fluorophenyl)-1-methyl-1-(5-oxo-2,3,4,5-tetrahydro-1H-cyclopenta[c]isoquinolin-1-yl)urea] are within 0.2 log units of each other in pEC50: 7.10 for the first, 7.05 for the second.

Compared with CN(C(=O)Nc1ccc(F)c(Cl)c1)[C@H]1COCc2[nH]c(=O)c3cc(F)c(F)cc3c21 (single isomer, unassigned) [Compound 71], CN(C(=O)Nc1ccc(Cl)c(Cl)c1)[C@@H]1COCc2[nH]c(=O)c3cc(F)c(F)cc3c21 [Compound 143, (S)-3-(3,4-Dichlorophenyl)-1-(8,9-difluoro-6-oxo-1,4,5,6-tetrahydro-2H-pyrano[3,4-c]isoquinolin-1-yl)-1-methylurea] is 1.02 log units higher in pEC50: 6.68 for the first, 7.70 for the second. The second is the more potent here.

Compared with CCN(C(=O)Nc1ccc(F)c(C#N)c1)C1COCc2[nH]c(=O)c3ccc(F)cc3c21 (stereo not shown) [Compound 78, 3-(3-Cyano-4-fluorophenyl)-1-ethyl-1-(9-fluoro-6-oxo-1,4,5,6-tetrahydro-2H-pyrano[3,4-c]isoquinolin-1-yl)urea], CCN(C(=O)Nc1ccc(F)c(C#N)c1)[C@@H]1COCc2[nH]c(=O)c3cc(F)c(F)cc3c21 (single isomer, unassigned) [Compound 138] is 0.60 log units higher in pEC50: 7.40 for the first, 8.00 for the second.

CCN(C(=O)Nc1ccc(F)c(Cl)c1)[C@@H]1COCc2[nH]c(=O)c3cc(F)c(F)cc3c21 (single isomer, unassigned) [Compound 88] and CCN(C(=O)Nc1ccc(F)c(Cl)c1)C1COCc2[nH]c(=O)c3cc(F)c(F)cc3c21 (racemic) [Compound 45, 3-(3-Chloro-4-fluorophenyl)-1-(8,9-difluoro-6-oxo-1,4,5,6-tetrahydro-2H-pyrano[3,4-c]isoquinolin-1-yl)-1-ethylurea] are the same in pEC50: 8.00 for the first, 8.00 for the second.

First: CN(C(=O)Nc1ccc(F)c(Cl)c1)C1C[S+]([O-])Cc2[nH]c(=O)c3cc(F)ccc3c21 (stereo not shown) [Compound 193, 3-(3-Chloro-4-fluorophenyl)-1-(8-fluoro-3-oxido-6-oxo-1,4,5,6-tetrahydro-2H-thiopyrano[3,4-c]isoquinolin-1-yl)-1-methylurea]
Second: CN(C(=O)Nc1ccc(F)c(Cl)c1)C1CS(=O)(=O)Cc2[nH]c(=O)c3cc(F)ccc3c21 (single isomer, unassigned) [Compound 197, 3-(3-Chloro-4-fluorophenyl)-1-(8-fluoro-3,3-dioxido-6-oxo-1,4,5,6-tetrahydro-2H-thiopyrano[3,4-c]isoquinolin-1-yl)-1-methylurea]
The pEC50 of the first is 0.28 log units lower: 5.36 for the first, 5.64 for the second.

Work on CN(C(=O)Nc1ccc(Cl)c(C#N)c1)[C@@H]1COCc2[nH]c(=O)c3cc(F)c(F)cc3c21 [Compound 142, (S)-3-(4-Chloro-3-cyanophenyl)-1-(8,9-difluoro-6-oxo-1,4,5,6-tetrahydro-2H-pyrano[3,4-c]isoquinolin-1-yl)-1-methylurea] yielded a pEC50 of 7.52.

Same assay, conditions: inhibition of rcDNA formation in HepDE19 cells (HepG2 derived), Tet-free medium, 7 day incubation, Quantigene 2.0 bDNA readout, top concentration 25 μM; read-out: DE-19bDNA EC50

Compared with CN(C(=O)Nc1ccc(F)c(Cl)c1)C1C[S+]([O-])Cc2[nH]c(=O)c3cc(F)c(F)cc3c21 (single isomer, unassigned) [Compound 209, 3-(3-Chloro-4-fluorophenyl)-1-(8,9-difluoro-3-oxido-6-oxo-1,4,5,6-tetrahydro-2H-thiopyrano[3,4-c]isoquinolin-1-yl)-1-methylurea], CN(C(=O)Nc1ccc(F)c(Cl)c1)C1CNCc2[nH]c(=O)c3cc(F)c(F)cc3c21 (single isomer, unassigned) [Compound 149, 3-(3-Chloro-4-fluorophenyl)-1-(8,9-difluoro-6-oxo-1,2,3,4,5,6-hexahydrobenzo[c][1,7]naphthyridin-1-yl)-1-methylurea] is 0.45 log units higher in pEC50: 6.15 for the first, 6.60 for the second. The second is the more potent here.

Going from CS(=O)(=O)CCN(C(=O)Nc1ccc(F)c(Cl)c1)C1COCc2[nH]c(=O)c3cc(F)c(F)cc3c21 (single isomer, unassigned) [Compound 140, 3-(3-Chloro-4-fluorophenyl)-1-(8,9-difluoro-6-oxo-1,4,5,6-tetrahydro-2H-pyrano[3,4-c]isoquinolin-1-yl)-1-(2-(methylsulfonyl)ethyl)urea] to CN(C(=O)Nc1cc(F)c(F)c(Cl)c1)C1COCc2[nH]c(=O)c3cc(F)ccc3c21 (single isomer, unassigned) [Compound 108, 3-(3-Chloro-4,5-difluorophenyl)-1-(8-fluoro-6-oxo-1,4,5,6-tetrahydro-2H-pyrano[3,4-c]isoquinolin-1-yl)-1-methylurea], the pEC50 falls from 8.00 to 7.70 (0.30 log units). The first is the more potent here.

Going from CN(C(=O)Nc1ccc(F)c(Cl)c1)C1CCCc2[nH]c(=O)c3c(c21)CCCC3 (single isomer, unassigned) [Compound 47, 3-(3-Chloro-4-fluorophenyl)-1-methyl-1-(6-oxo-1,2,3,4,5,6,7,8,9,10-decahydrophenanthridin-1-yl)urea] to CN1Cc2[nH]c(=O)c3cc(F)ccc3c2C(N(C)C(=O)Nc2ccc(F)c(Cl)c2)C1 (single isomer, unassigned) [Compound 156, 3-(3-Chloro-4-fluorophenyl)-1-(8-fluoro-3-methyl-6-oxo-1,2,3,4,5,6-hexahydrobenzo[c][1,7]naphthyridin-1-yl)-1-methylurea], the pEC50 falls from 7.22 to 6.38 (0.84 log units).

First: CC(C)CN(C(=O)Nc1ccc(F)c(C#N)c1)C1COCc2[nH]c(=O)c3cc(F)ccc3c21 (single isomer, unassigned) [Compound 116, 3-(3-Cyano-4-fluorophenyl)-1-(8-fluoro-6-oxo-1,4,5,6-tetrahydro-2H-pyrano[3,4-c]isoquinolin-1-yl)-1-isobutylurea]
Second: CN1Cc2[nH]c(=O)c3cc(F)ccc3c2C(N(C)C(=O)Nc2ccc(F)c(C#N)c2)C1 (single isomer, unassigned) [Compound 164, 3-(3-Cyano-4-fluorophenyl)-1-(8-fluoro-3-methyl-6-oxo-1,2,3,4,5,6-hexahydrobenzo[c][1,7]naphthyridin-1-yl)-1-methylurea]
The pEC50 of the first is 0.75 log units higher: 6.64 for the first, 5.89 for the second.

Going from CN(C(=O)Nc1ccc(F)c(C#N)c1)C1CN(CCO)Cc2[nH]c(=O)c3cc(F)ccc3c21 (single isomer, unassigned) [Compound 172, 3-(3-Cyano-4-fluorophenyl)-1-(8-fluoro-3-(2-hydroxyethyl)-6-oxo-1,2,3,4,5,6-hexahydrobenzo[c][1,7]naphthyridin-1-yl)-1-methylurea] to CN(C(=O)Nc1ccc(F)c(C#N)c1)C1CSCc2[nH]c(=O)c3cc(F)ccc3c21 (single isomer, unassigned) [Compound 186, 3-(3-Cyano-4-fluorophenyl)-1-(8-fluoro-6-oxo-1,4,5,6-tetrahydro-2H-thiopyrano[3,4-c]isoquinolin-1-yl)-1-methylurea], the pEC50 rises from 5.00 to 7.22 (2.22 log units). The second is the more potent here.

Going from CN(C(=O)Nc1cc(F)c(F)c(F)c1)C1COCc2[nH]c(=O)c3cc(F)c(F)cc3c21 (single isomer, unassigned) [Compound 134, 1-(8,9-Difluoro-6-oxo-1,4,5,6-tetrahydro-2H-pyrano[3,4-c]isoquinolin-1-yl)-1-methyl-3-(3,4,5-trifluorophenyl)urea] to CN(C(=O)Nc1cc(Cl)c(F)c(Cl)c1)C1COCc2[nH]c(=O)c3cc(F)ccc3c21 (single isomer, unassigned) [Compound 97, 3-(3,5-Dichloro-4-fluorophenyl)-1-(8-fluoro-6-oxo-1,4,5,6-tetrahydro-2H-pyrano[3,4-c]isoquinolin-1-yl)-1-methylurea], the pEC50 falls from 6.00 to 5.48 (0.52 log units). The first is the more potent here.

Same assay, conditions: read-out: DE-19bDNA EC50; inhibition of rcDNA formation in HepDE19 cells (HepG2 derived), Tet-free medium, 7 day incubation, Quantigene 2.0 bDNA readout, top concentration 25 μM

Compared with CN(C(=O)Nc1cccc(Cl)c1)C1COCc2[nH]c(=O)c3cc(F)c(F)cc3c21 (single isomer, unassigned) [Compound 119, 3-(3-Chlorophenyl)-1-(8,9-difluoro-6-oxo-1,4,5,6-tetrahydro-2H-pyrano[3,4-c]isoquinolin-1-yl)-1-methylurea], CN(C(=O)Nc1ccccc1)C1COCc2[nH]c(=O)c3cc(F)c(F)cc3c21 (single isomer, unassigned) [Compound 101, 1-(8,9-Difluoro-6-oxo-1,4,5,6-tetrahydro-2H-pyrano[3,4-c]isoquinolin-1-yl)-1-methyl-3-phenylurea] is 0.41 log units lower in pEC50: 5.74 for the first, 5.33 for the second.
